# Results as given in ChEMBL document CHEMBL1153211, “Evaluation of secondary amide replacements in a series of CCR5 antagonists as a means to increase intrinsic membrane permeability. Part 1: Optimization of gem-disubstituted azacycles” (Bioorg Med Chem Lett, 2010).
# What was measured:
# [1] = system: Human immunodeficiency virus 1; assay: Antiviral activity against HIV1 infected in human JC53-BL cells after 3 days by luciferase reporter gene assay; type: functional, organism-based; settings: Human immunodeficiency virus 1, JC53BL, 72 h
# [2] = target: C-C chemokine receptor type 5 (Homo sapiens, UniProt P51681); assay: Antagonist activity at human CCR5; type: functional
# [3] = Apparent permeability from apical to basolateral side of human Caco-2 cells after 21 days
# Sequence of C-C chemokine receptor type 5 (P51681 whole entry): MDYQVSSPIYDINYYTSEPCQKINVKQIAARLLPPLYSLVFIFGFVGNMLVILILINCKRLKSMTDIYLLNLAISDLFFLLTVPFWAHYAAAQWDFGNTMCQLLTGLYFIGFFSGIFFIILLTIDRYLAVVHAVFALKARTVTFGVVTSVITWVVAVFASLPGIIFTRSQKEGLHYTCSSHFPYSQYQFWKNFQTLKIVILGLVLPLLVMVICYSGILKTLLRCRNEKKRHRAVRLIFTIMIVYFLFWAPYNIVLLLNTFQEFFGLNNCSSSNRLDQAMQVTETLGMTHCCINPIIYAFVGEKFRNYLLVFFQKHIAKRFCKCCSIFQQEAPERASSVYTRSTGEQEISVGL
Compound,IC50 [1] [nM],IC50 [2] [nM],Papp A→B [3] [×10⁻⁶ cm/s]
Cc1ncnc(C)c1C(=O)N1C[C@H]2CN(CCC3(c4ccccc4)CN(C(=O)C4CCC(F)(F)CC4)C3)C[C@H]2C1,21,28,–
Cc1nc(C(F)(F)F)nc(C)c1C(=O)N1C[C@H]2CN(CCC3(c4ccccc4)CN(C(=O)C4CCC(F)(F)CC4)C3)C[C@H]2C1,4,30,–
Cc1ccnc(C)c1C(=O)N1C[C@H]2CN(CCC3(c4ccccc4)CN(C(=O)C4CCC(F)(F)CC4)C3)C[C@H]2C1,12,38,–
Cc1cc(C#N)nc(C)c1C(=O)N1C[C@H]2CN(CCC3(c4ccccc4)CN(C(=O)C4CCC(F)(F)CC4)C3)C[C@H]2C1,2,17,0.53
Cc1cc(C#N)nc(C)c1C(=O)N1C[C@H]2CN(CCC3(c4ccccc4)CN(C(=O)C4CC(F)(F)C4)C3)C[C@H]2C1,4,24,0.44
Cc1cc(C(F)(F)F)nc(C)c1C(=O)N1C[C@H]2CN(CCC3(c4ccccc4)CN(C(=O)C4CCC(F)(F)CC4)C3)C[C@H]2C1,61.2,21,1.72
Cc1cc(C(F)(F)F)nc(C)c1C(=O)N1C[C@H]2CN(CCC3(c4ccccc4)CN(C(=O)C4CC(F)(F)C4)C3)C[C@H]2C1,4,22,1.59
Cc1nc(C(F)(F)F)nc(C)c1C(=O)N1C[C@H]2CN(CCC3(c4ccccc4)CN(C(=O)C4CCOC4)C3)C[C@H]2C1 (stereo partly specified),59,38,–
Cc1nc(C(F)(F)F)nc(C)c1C(=O)N1C[C@H]2CN(CCC3(c4ccccc4)CN(C(=O)C4CC(F)(F)C4)C3)C[C@H]2C1,23,66,–
Cc1ncnc(C)c1C(=O)N1C[C@H]2CN(CCC3(c4ccccc4)CN(C(=O)C4CC(F)(F)C4)C3)C[C@H]2C1,39,30,–
Cc1ncnc(C)c1C(=O)N1C[C@H]2CN(CCC3(c4ccccc4)CN(S(=O)(=O)C4CCCC4)C3)C[C@H]2C1,40,27,–
Cc1ncnc(C)c1C(=O)N1C[C@H]2CN(CCC3(c4ccccc4)CCN(C(=O)C(C)(C)C)C3)C[C@H]2C1 (stereo partly specified),–,242,–
Cc1ncnc(C)c1C(=O)N1C[C@H]2CN(CCC3(c4cccc(F)c4)CCN(C(=O)CC(C)(C)C)CC3)C[C@H]2C1,447,–,–
Cc1ncnc(C)c1C(=O)N1C[C@H]2CN(CCC3(c4cccc(F)c4)CCN(C(=O)C(C)(C)CO)CC3)C[C@H]2C1,–,167,–
Cc1cc(C#N)nc(C)c1C(=O)N1C[C@H]2CN(CCC3(c4cccc(F)c4)CCN(C(=O)C(C)(C)C)CC3)C[C@H]2C1,18,15,2.73
Cc1cc(C#N)nc(C)c1C(=O)N1C[C@H]2CN(CCC3(c4ccccc4)CCN(C(=O)C4CCCC4)C3)C[C@H]2C1 (stereo partly specified),24,46,2.55
Cc1ncnc(C)c1C(=O)N1C[C@H]2CN(CCC3(c4cccc(F)c4)CCN(C(=O)C(C)(C)C)CC3)C[C@H]2C1,67,59,2.98
Cc1cc(C#N)nc(C)c1C(=O)N1C[C@H]2CN(CCC3(c4ccccc4)CCN(C(=O)C(C)(C)C)C3)C[C@H]2C1 (stereo partly specified),–,69,–
Cc1ncnc(C)c1C(=O)N1C[C@H]2CN(CCC3(c4ccccc4)CN(C(=O)C4CCCC4)C3)C[C@H]2C1,60,67,–
Cc1ncnc(C)c1C(=O)N1C[C@H]2CN(CCC3(c4cccc(F)c4)CCN(C(=O)C(C)C)CC3)C[C@H]2C1,> 400,102,–
Cc1ncnc(C)c1C(=O)N1C[C@H]2CN(CCC3(c4ccccc4)CCN(C(=O)C4CCCC4)C3)C[C@H]2C1 (stereo partly specified),351,116,–
Cc1ccnc(C)c1C(=O)N1C[C@H]2CN(CCC3(c4ccccc4)CN(C(=O)C4CC(F)(F)C4)C3)C[C@H]2C1,55,60,–
Cc1ncnc(C)c1C(=O)N1C[C@H]2CN(CCC3(c4ccccc4)CN(C(=O)CC4CCCC4)C3)C[C@H]2C1,53,28,–
Cc1ncnc(C)c1C(=O)N1C[C@H]2CN(CCC3(c4ccccc4)CN(C(=O)C4CCOC4)C3)C[C@H]2C1 (stereo partly specified),204,55,–
CC(=O)N1CCC(CCN2C[C@@H]3CN(C(=O)c4c(C)ncnc4C)C[C@@H]3C2)(c2cccc(F)c2)CC1,–,> 500,–
Cc1ncnc(C)c1C(=O)N1C[C@H]2CN(CCC3(c4ccccc4)CN(C(=O)C(C)(C)CO)C3)C[C@H]2C1,130,56,–
Cc1ncnc(C)c1C(=O)N1C[C@H]2CN(CCC3(c4ccccc4)CN(C(=O)C(C)(C)C)C3)C[C@H]2C1,77,27,–
